Data published in US20240092756A1, “METHODS AND COMPOSITION FOR KRAS MODIFICATIONS” (2692372 ONTARIO, INC., priority 2020, published 2024).

What was measured:
[1] = biological target: KRAS G12C Lite (SEQ ID NO:3) (Homo sapiens, UniProt P01116, C118S/C51S/C80S/G12C/S136P/S39C); test: Intact mass analysis (LC-MS) of covalent modification, KRAS G12C Lite; assay type: binding; parameters: key to KRAS Lite Modification: a: KRAS Lite modified; conditions: for KRAS Lite Modification: intact mass spectrometry, covalent modification of KRAS G12C Lite; for covalent adduct mass, His-tagged KRAS G12C Lite: modification by one molecule of compound
Protocol: (§1) The covalent modification of the proteins with the compounds were evaluated using intact mass analysis by liquid chromatography-mass spectrometry instrument (LC-MS/MS).
(§2) The reaction solution (20 μL) was prepared in 96-well plate and contained the protein (2 μM), the compound (100 μM), HEPES buffer (20 mM, pH 8), 2% DMSO, 2% glycerol, and 150 mM NaCl. The reaction was allowed to proceed for 24 h at 25° C. The reaction solution (1 μL) was injected into the LC/MS/MS without any further sample preparation.
(§3) The LC-MS/MS instrument comprises of a Waters G2-XS quadrupole-time of flight (QTof) mass spectrometer and a Waters Acuity I-class Ultra-High Performance Liquid Chromatography (UPLC) system. The I-class UPLC system includes a binary solvent manager (BSM), and an Acquity sample manager (SM). The mobile phase consisted of: A) 0.1% (v/v) formic acid in MilliQ water; B) 0.1% (v/v) formic acid acetonitrile. Gradients were run over 5 min and proceeded as follows: A:B, 85:15, 0.0-0.7 min, 85:15→15:85, 0.7-1.5 min, 10:90, 1.5-4 min, 10:90→85:15, 4-4.5 min, 85:15, 4.5-5 min. The analytical column was a Waters BEH C4 column 1.7 μm (50×1 mm) column with pore sizes of 300 Å. The TOF MS data was collected in positive ion mode (m/z of 400-2000 Da) using MassLynx software (Waters).
(§4) The spectral deconvolution was performed using UNIFI software (Waters). The added mass of the protein upon covalent modification to cysteine residues were specified. Multiple modification of up to 8 cysteine was allowed. All the adducts with signal intensities of <2% of the base peak were ignored. The % modification was calculated as the adduct signal intensity over the total intensities of the protein peaks and the adducts.

[2] = biological target: T1, KRAS G12C (SEQ ID NO:1 or SEQ ID NO:2) (Homo sapiens, UniProt P01116, G12C); test: Intact mass analysis (LC-MS) of covalent modification, KRAS G12C; assay type: binding; parameters: key to KRAS G12C Modification: b: KRAS G12C modified; conditions: for KRAS G12C Modification: intact mass spectrometry, covalent modification of KRAS G12C FL; for covalent adduct mass, His-tagged KRAS G12C: modification by one molecule of compound
T1 construct: purchased
Protocol: as §1, §2, §3, §4

KRAS G12C Lite = KRAS G12C Lite (Homo sapiens, UniProt P01116, C118S/C51S/C80S/G12C/S136P/S39C); test: Differential scanning fluorimetry, KRAS G12C Lite; assay type: binding; parameters: key: Y: protein destabilized; N: protein not destabilized; conditions: 37° C. 5 hours incubation
Protocol: (§5) KRas proteins at 0.05 mg/ml in buffer Hepes, 147 mM NaCl, 2% glycerol, 5 mM MgCl2, 1 mM EDTA, 10 μM GDP, pH 8.0 were incubated in the presence desired concentration of compounds (5% DMSO final concentration) at 37° C. for 5 hours. After incubation, Sypro Oange to a final concentration of 5× was added to each sample. 20 μl aliquots of samples were transferred PCR tubes, sealed with caps, and run in a BioRad CFX96 RTPCR thermocycler. In the instrument, the samples were heated at a rate of 1° C./min from 25 to 90 degrees. Fluorescence readings were taken every 1 degree. The data generated was exported and analyzed using GraphPad-Prism software. The denaturation curves were fit using a Boltzmann sigmoidal equation to calculate melting temperatures (Tm).

KRAS G12C [3] = biological target: T2, KRAS G12C (Homo sapiens, UniProt P01116, G12C); test: SOS1-catalyzed KRAS coupled nucleotide exchange assay (Alpha technology); assay type: biochemical; parameters: His; key: A: KRAS G12C bound and modulated; conditions: inhibition of SOS1 mediated KRAS nucleotide exchange
Summary of the method: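 Alpha readout of c-RAF RBD binding to GTP-bound KRAS, normalized to DMSO. Method I: 20 nM GDP-KRAS G12C/C118A with compound 5 min, then 1.25 mM GTP + 500 nM SOS-1 30 min, pH 7.4 HEPES/MgCl2 buffer, 50 nM RBD. Method II: 50 nM GDP-KRAS G12C with compound 2 h, 1 mM GTP + 500 nM SOS-1 30 min, 2.5 nM GST-RBD; RT throughout.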

KRAS G12C [4] = biological target: T2, KRAS G12C; test: Differential scanning fluorimetry, KRAS G12C; assay type: binding; parameters: purchased; key: Y: protein destabilized; N: protein not destabilized; conditions: 37° C. 5 hours incubation
Protocol: as §5

[5] = test system: phospho-ERK1/2 in MIA PaCa-2 cells (express KRAS G12C); test: ERK1/2 phosphorylation in MIA PaCa-2 cells; assay type: cell-based, human; parameters: key: X: KRAS G12C bound and modulated in cells

KRAS Lite Modification [1]	KRAS G12C Modification [2]	KRAS G12C Lite DSF ΔTm (KRAS G12C Lite)	KRAS-SOS1 Nucleotide Exchange (KRAS G12C [3])	KRAS G12C DSF ΔTm (KRAS G12C [4])	covalent adduct mass, His-tagged KRAS G12C Lite [1]	covalent adduct mass, His-tagged KRAS G12C [2]	SMILES	pERK - MIA PaCa-2 - (6 hours, 5 uM) [5]
a	b	Y	A	Y			Cc1ccnc(C(C)C)c1-n1c(=O)nc(N2CC(NS(=O)(=O)c3c(F)c(F)c(F)c(F)c3C(F)(F)F)C2)c2cc(F)c(Cl)nc21 [Compound 13A, N-(1-(7-chloro-6-fluoro-1-(2-isopropyl-4-methylpyridin-3-yl)-2-oxo-1,2-dihydropyrido[2,3-d]pyrimidin-4-yl)azetidin-3-yl)-2,3,4,5-tetrafluoro-6-(trifluoromethyl)benzenesulfonamide]	
a	b		A		22,229 Da	22,120 Da	Cc1ccnc(C(C)C)c1-n1c(=O)nc(N2CCN(S(=O)(=O)c3c(F)c(F)c(F)c(F)c3C(F)(F)F)C[C@@H]2C)c2cc(F)c(-c3c(O)cccc3F)nc21 [Compound 6A, 6-fluoro-7-(2-fluoro-6-hydroxyphenyl)-1-(2-isopropyl-4-methylpyridin-3-yl)-4-((S)-2-methyl-4-((2,3,4,5-tetrafluoro-6-(trifluoromethyl)phenyl)sulfonyl)piperazin-1-yl)pyrido[2,3-d]pyrimidin-2(1H)-one]	X
a	b	Y	A	Y			Cc1ccnc(C(C)C)c1-n1c(=O)nc(N2CCN(S(=O)(=O)c3c(F)c(F)c(F)c(F)c3OC(F)F)C[C@@H]2C)c2cc(F)c(Cl)nc21 [Compound 12A, (S)-7-chloro-4-(4-((2-(difluoromethoxy)-3,4,5,6-tetrafluorophenyl)sulfonyl)-2-methylpiperazin-1-yl)-6-fluoro-1-(2-isopropyl-4-methylpyridin-3-yl)pyrido[2,3-d]pyrimidin-2(1H)-one]	
a	b	Y		Y			Cc1ccnc(C(C)C)c1-n1c(=O)nc(N2CCN(S(=O)(=O)c3c(F)c(F)c(F)c(F)c3C(F)(F)F)C[C@@H]2C)c2cc(F)c(Cl)nc21 [Compound 11A, 7-chloro-6-fluoro-1-(2-isopropyl-4-methylpyridin-3-yl)-4-((S)-2-methyl-4-((2,3,4,5-tetrafluoro-6-(trifluoromethyl)phenyl)sulfonyl)piperazin-1-yl)pyrido[2,3-d]pyrimidin-2(1H)-one]	
a	b		A		22,209 Da	22,100 Da	Cc1ccnc(C(C)C)c1-n1c(=O)nc(N2CCN(S(=O)(=O)c3c(F)c(F)c(F)c(F)c3OCF)C[C@@H]2C)c2cc(F)c(-c3c(O)cccc3F)nc21 [Compound 7A, 6-fluoro-7-(2-fluoro-6-hydroxyphenyl)-1-(2-isopropyl-4-methylpyridin-3-yl)-4-((S)-2-methyl-4-((2,3,4,5-tetrafluoro-6-(fluoromethoxy)phenyl)sulfonyl)piperazin-1-yl)pyrido[2,3-d]pyrimidin-2(1H)-one]	X
a	b	Y	A				CN1CCC[C@H]1COc1nc2c(c(N3CCN(S(=O)(=O)c4c(F)c(F)c(F)c(F)c4C(F)(F)F)CC3)n1)CCN(c1cccc3cccc(Cl)c13)C2 (stereo in doubt) [Compound 42A, (7R)-7-(8-chloro-1-naphthyl)-2-[[(1S,2S)-1-methylpyrrolidin-2-yl]methoxy]-4-[4-[2,3,4,5-tetrafluoro-6-(trifluoromethyl)phenyl]sulfonylpiperazin-1-yl]-6,8-dihydro-5H-pyrido[3,4-d]pyrimidine]	
a	b		A				Cc1ccnc(C(C)C)c1-n1c(=O)nc(N2CCN(S(=O)(=O)c3c(F)c(F)c(F)c(F)c3OC(F)F)C[C@@H]2C)c2cc(F)c(-c3c(O)cccc3F)nc21 (single isomer, unassigned) [Compound 18A]	X
